Laboratory results as given in patent US7592351B2, “Substituted imidazo[1,2-a]pyridine compounds and pharmaceutical preparations containing substituted imidazo[1,2-a]pyridine compounds” (Gruenenthal GmbH, priority 2004, dated 2009).
Counter-ions that a name gives are not always drawn. Like-named read-outs stand apart in the source and are kept apart here.

Key:
[1] = molecular target: T1, vanilloid receptor VR1 (capsaicin receptor) (Rattus norvegicus, UniProt O35433); test: Determination of affinity for vanilloid receptor VR1 ([3H] resiniferatoxin binding, rat spinal cord membranes); set-up: species or system Sprague Dawley rats
T1 construct: isolated from the spinal cord of male Sprague Dawley rats (breeder: Charles River Deutschland, 32699 Extertal) and used for preparation of the membrane; from tissue; host or cells: rat spinal cord (cervical region and one third of the thoracic region) membranes
T1 sequence (O35433 whole entry): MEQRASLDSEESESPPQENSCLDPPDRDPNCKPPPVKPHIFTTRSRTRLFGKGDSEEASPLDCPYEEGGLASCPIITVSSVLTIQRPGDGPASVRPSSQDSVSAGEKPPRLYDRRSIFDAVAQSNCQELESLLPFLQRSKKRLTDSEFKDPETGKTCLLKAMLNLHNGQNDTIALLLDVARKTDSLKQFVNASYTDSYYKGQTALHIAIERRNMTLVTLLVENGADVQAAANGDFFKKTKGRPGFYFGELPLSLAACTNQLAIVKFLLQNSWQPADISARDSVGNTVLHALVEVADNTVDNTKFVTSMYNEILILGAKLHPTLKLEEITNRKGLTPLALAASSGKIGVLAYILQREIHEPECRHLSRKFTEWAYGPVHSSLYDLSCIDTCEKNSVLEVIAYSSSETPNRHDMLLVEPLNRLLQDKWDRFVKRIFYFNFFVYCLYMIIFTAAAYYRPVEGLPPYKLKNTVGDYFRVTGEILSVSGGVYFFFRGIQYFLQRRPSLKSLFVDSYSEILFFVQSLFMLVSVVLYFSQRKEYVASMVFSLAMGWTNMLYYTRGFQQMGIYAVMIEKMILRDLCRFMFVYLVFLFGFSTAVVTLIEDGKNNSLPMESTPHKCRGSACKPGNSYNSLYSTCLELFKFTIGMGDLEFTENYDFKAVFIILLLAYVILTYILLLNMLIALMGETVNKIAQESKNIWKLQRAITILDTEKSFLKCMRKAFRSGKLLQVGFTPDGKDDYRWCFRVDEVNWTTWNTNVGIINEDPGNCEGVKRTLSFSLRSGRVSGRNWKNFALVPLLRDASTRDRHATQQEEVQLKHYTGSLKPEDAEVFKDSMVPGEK
Source text: This method was developed on the basis of the publication by Acs et al., J. Neurochem. 65, 301-308 (1995). The corresponding description is hereby introduced as a reference and is deemed to be part of the disclosure.
• Sprague Dawley rats weighing between 150-300 g • (breeder: Charles River Deutschland, 32699 Extertal, Germany) • HEPES (item no. H-3375, SIGMA) • NaCl (item no. 6400.1000; Merck) • KCl (item no.: 4936.1000; Merck) • HCl (item no.: 1.00317; Merck) • [^3H] resiniferatoxin ([^3H] RTX) (item no.: NET-1132, Perkin-Elmer) • Resiniferatoxin (RTX, cold) (item no.: 550-179-M001, Alexis) • D-Glucose (item no.: 1.08337.1000, Merck) • Sucrose (item no.: S-9378, Sigma) • α1-acid glycoprotein (item no.: G-3643, Sigma) • BSA (bovine serum albumin, item no.: A-2153, Sigma) • GF/B filter mats (Brandel Inc., cat. no. FP 100, size: 2¼″×12¼″)
Buffer: (Concentration values in brackets in each case in mM)
• HEPES (10); KCl (5); NaCl (5.8); CaCl (0.75); MgCl (2.0); D-glucose (12); • sucrose (137). The pH value is adjusted at room temperature using 20% strength HCl. B. Preparation of Membranes
The cervical region and one third of the following thoracic region is isolated from the spinal cord of male Sprague Dawley rats (breeder: Charles River Deutschland, 32699 Extertal) and used for preparation of the membrane. After the combined tissue is weighed, it is homogenized in ice-cooled buffer of the above-stated composition. 20 ml of buffer were used per 1 g of tissue (1:20 weight/volume). Homogenisation performed with a homogeniser from Kinematica, model Polytron PT-3000 with PT-DA-3012/2 drive unit. The spinal cord tissue is disrupted within 60 seconds in the cold buffer with ice cooling at a rotational speed of 6000 rpm. The material is then centrifuged for 10 minutes at 1000 g and +4° C. and the resultant precipitate discarded. The […] in the same volume of buffer of the above-stated composition. The material is then centrifuged for 40 minutes at 48,000 g and +4° C. and the supernatant discarded. The resultant precipitate is resuspended in 30 ml of buffer of the above-stated composition and used in this form in the vanilloid receptor (VR1) assay.
Incubation is performed in the water bath for one hour at 37° C. The samples are then placed in an ice bath for 15 minutes. In order to minimise nonspecific adsorption of the RTX, 100 μg of α1-acid glycoprotein (in 50 μl of buffer) are added to each incubation tube. The samples are then thoroughly mixed on a vortex shaker and left to stand for 10 minutes. The batches are then filtered with the assistance of the model M-24R “Brandel Cell Harvester” through a GF/B glass fiber filter mat which has been presoftened in tris buffer. The filter is then rinsed through 3 times with 4 ml portions of ice-cold HEPES buffer of the above-stated composition for each sample. The filters are transferred into scintillation counter vessels, each is combined with a 10 ml portion of “Ready Protein” scintillating material, and the vessels are closed with screw caps. The vessels are shaken on the vortex shaker and left to stand for at least 15 hours in the fume cupboard. The samples are then measured on the β-counter (model 1409 Wallac, Perkin Elmer, 63110 Rogau-Jügesheim, Germany).

vanilloid receptor (VR1) = molecular target: T2, vanilloid receptor (VR1) (Rattus norvegicus, UniProt O35433); test: Functional investigations on vanilloid receptor (VR1): Ca2+ influx FLIPR assay in CHO K1 cells stably transfected with the VR1 gene; type: cell-based, rats; settings: method (b), 10 μM, 1–3 measurements; for inhibition at 10 µM: CHO-K1, read-out: VR1 inhibition in rats (10 μM) [%]
T2 construct: expressed in transfected cells; host or cells: CHO K1 cells (ECACC)
T2 sequence (O35433 whole entry): as above
Source text: (b) Functional Investigations on Vanilloid Receptor (VR1)
The agonistic or antagonistic action of the substances to be investigated on the vanilloid receptor (VR1) may be determined with the following assay. According to this assay, the influx of Ca^2+ through the channel is quantified with the assistance of a Ca^2+-sensitive dye (type Fluo4, Molecular Probes Europe BV, Leiden, Netherlands) in a Fluorescent Imaging Plate Reader (FLIPR, Molecular Devices, Sunnyvale, USA).
Chinese hamster ovary cells (CHO K1 cells, European Collection of Cell Cultures (ECACC), Great Britain) are stably transfected with the VR1 gene. For functional investigations, these cells are plated out onto poly-D-lysine-coated, black 96 well plates with a clear bottom (BD Biosciences, Heidelberg, Germany) at a density of 25,000 cells/well. The cells are incubated overnight at 37° C. and 5% CO2 in a culture medium (Ham's Nutrient Mixture F12, 10 vol. % FCS (foetal calf serum), 18 μg/mL L-proline). On the following day, the cells are incubated with Fluo4 (Fluo4 2 μM, Pluronic F127 0.01 vol. %, Molecular Probes in HBSS (Hank's buffered saline solution), Gibco Invitrogen GmbH, Karlsruhe, Germany) for 30 minutes at 37° C. The plates are then washed 3 times with HBSS buffer and, after a further 15 minutes' incubation at room temperature, used for Ca^2+ measurement in the FLIPR. Ca^2+-dependent fluorescence is here measured before and after addition of the substances to be investigated (wavelength λex=488 nm, λem=540 nm). Quantification proceeds by measuring the highest fluorescence intensity (FC, fluorescence counts) over time.
The FLIPR protocol comprises 2 additions of substance. […] The percentage inhibition in comparison with the maximum achievable inhibition with 10 μM capsazepine is calculated.

Compound | inhibition at 10 µM (vanilloid receptor (VR1)) [%] | VR1 activation in rats (10 μM) [%] (vanilloid receptor (VR1)) | further results
C=C(C)[C@]12C[C@@H](C)[C@@]34O[C@](Cc5ccccc5)(O[C@@H]1[C@@H]3C=C(COC(=O)Cc1ccc(O)c(OC)c1)C[C@]1(O)C(=O)C(C)=C[C@@H]41)O2 [Resiniferatoxin] | – | – | IC50 [1]: 0.00021 µM
CCCCCC(C)(C)Nc1c(-c2ccoc2)nc2ccc(C)cn12 [Example 28, (1,1-Dimethyl-hexyl)-(2-furan-3-yl-6-methyl-imidazo[1,2-a]pyridin-3-yl)-amine hydrochloride] | 36.6 | – | –
CCCCCC(C)(C)Nc1c(-c2ccsc2)nc2cc(C)ccn12.Cl [Example 17, (1,1-Dimethyl-hexyl)-(7-methyl-2-thiophen-3-yl-imidazo[1,2-a]pyridin-3-yl)-amine hydrochloride] | 97.5 | 68.9 | –
CCCCCCCNc1c(-c2ccoc2)nc2cc(C)ccn12.Cl [Example 11, (2-Furan-3-yl-7-methyl-imidazo[1,2-a]pyridin-3-yl)-heptyl-amine hydrochloride] | 81.7 | 50.3 | –
CC1(C)C[C@H]2C=C(C=O)[C@]3(C=O)C[C@]3(C)[C@H]2C1 [Isovelleral] | – | – | IC50 [1]: 7.22 µM
CCCCCC(C)(C)Nc1c(-c2ccncc2)nc2cc(C)ccn12 [Example 26, (1,1-Dimethyl-hexyl)-(7-methyl-2-pyridin-4-yl-imidazo[1,2-a]pyridin-3-yl)-amine hydrochloride] | 32.1 | – | –
CCCCCCCCNc1c(-c2ccoc2)nc2cc(C)ccn12.Cl [Example 12, (2-Furan-3-yl-7-methyl-imidazo[1,2-a]pyridin-3-yl)-octyl-amine hydrochloride] | 84.6 | 36.9 | –
CCCCCCCCNc1c(-c2ccncc2)nc2cc(C)ccn12 [Example 25, (7-Methyl-2-pyridin-4-yl-imidazo[1,2-a]pyridin-3-yl)-octyl-amine hydrochloride] | 33.2 | – | –
CCCCCCCC(C)(C)Nc1c(-c2ccoc2)nc2cc(C)ccn12 [Example 16, (1,1-Dimethyl-octyl)-(2-furan-3-yl-7-methyl-imidazo[1,2-a]pyridin-3-yl)-amine hydrochloride] | 31.8 | – | –
COc1cc(CNC(=O)CCCCCCC(C)C)ccc1O [Dihydrocapsaicin] | – | – | IC50 [1]: 2.72 µM
CCCCCCC(C)(C)Nc1c(-c2ccoc2)nc2cc(C)ccn12.Cl [Example 15, (1,1-Dimethyl-heptyl)-(2-furan-3-yl-7-methyl-imidazo[1,2-a]pyridin-3-yl)-amine hydrochloride] | 92.5 | 49 | –
CCCCCCCCCNc1c(-c2cccnc2)nc2cc(C)ccn12 [Example 23, (7-Methyl-2-pyridin-3-yl-imidazo[1,2-a]pyridin-3-yl)-nonyl-amine hydrochloride] | 34.4 | – | –
CCCCCCC(C)(C)Nc1c(-c2ccsc2)nc2cc(C)ccn12.Cl [Example 18, (1,1-Dimethyl-heptyl)-(7-methyl-2-thiophen-3-yl-imidazo[1,2-a]pyridin-3-yl)-amine hydrochloride] | 62.8 | 45.3 | –
CCCCCCCNc1c(-c2ccoc2)nc2ccccn12 [Example 6, (2-Furan-3-yl-imidazo[1,2-a]pyridin-3-yl)-heptyl-amine hydrochloride] | 66.4 | – | –
CCCCC/C=C\C/C=C\C/C=C\C/C=C\CCCC(=O)NCc1ccc(O)c(OC)c1 [Arvanil] | – | – | IC50 ([1]; [3H] RTX 100 pM, rat spinal cord membranes, comparison substances, read-out: IC50 (VR-1 receptor affinity, reference data)): 8.9 µM
CCCCCCCCNc1c(-c2ccoc2)nc2ccc(C)cn12 [Example 27, (2-Furan-3-yl-6-methyl-imidazo[1,2-a]pyridin-3-yl)-octyl-amine hydrochloride] | 61.1 | – | –
CCCCCC(C)(C)Nc1c(-c2ccoc2)nc2cc(C)ccn12.Cl [Example 14, (1,1-Dimethyl-hexyl)-(2-furan-3-yl-7-methyl-imidazo[1,2-a]pyridin-3-yl)-amine hydrochloride] | 97.9 | 52.1 | –
CCCCCC(C)(C)Nc1c(-c2ccoc2)nc2ccccn12 [Example 7, (1,1-Dimethyl-hexyl)-(2-furan-3-yl-imidazo[1,2-a]pyridin-3-yl)-amine hydrochloride] | 46 | – | –
